In the supplement of paper PMC10307832:

Key:
Assay in all cases: relative viability (nuclei count vs DMSO), 5 days (fraction); higher = more cells survive
Wnt-C59 + Alpelisib = compound: CC1=NC=CC(=C1)C2=CC=C(C=C2)CC(=O)NC3=CC=C(C=C3)C4=CN=CC=C4 [Wnt-C59] + Cc1nc(NC(=O)N2CCC[C@H]2C(N)=O)sc1-c1ccnc(C(C)(C)C(F)(F)F)c1 [Alpelisib] (partner 2 µM)
Outline: (§1)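 Relative viability divides the nuclei count in treated wells by that in vehicle wells. Lung cancer cell lines were seeded in 1536-well plates, dosed by pin tool the next day, and fixed and stained after 5 days in one step with final 0.05% Triton X-100, 1% formaldehyde and 1 ug/ml Hoechst. Dosing was a single drug or a fixed anchor-drug dose plus five library-drug doses (not always all listed) in √10 steps, and values are medians of duplicate plates imaged at 4×.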

Lapatinib + Luminespib = compound: CS(=O)(=O)CCNCc1ccc(-c2ccc3ncnc(Nc4ccc(OCc5cccc(F)c5)c(Cl)c4)c3c2)o1 [Lapatinib] + CCNC(=O)c1noc(-c2cc(C(C)C)c(O)cc2O)c1-c1ccc(CN2CCOCC2)cc1 [Luminespib] (partner 0.01 µM)
Outline: as §1

Wnt-C59 + Tozasertib = compound: CC1=NC=CC(=C1)C2=CC=C(C=C2)CC(=O)NC3=CC=C(C=C3)C4=CN=CC=C4 [Wnt-C59] + Cc1cc(Nc2cc(N3CCN(C)CC3)nc(Sc3ccc(NC(=O)C4CC4)cc3)n2)n[nH]1 [Tozasertib] (partner 0.1 µM)
Outline: as §1

Lapatinib + Vorinostat = compound: CS(=O)(=O)CCNCc1ccc(-c2ccc3ncnc(Nc4ccc(OCc5cccc(F)c5)c(Cl)c4)c3c2)o1 [Lapatinib] + O=C(CCCCCCC(=O)Nc1ccccc1)NO [Vorinostat] (partner 1 µM)
Outline: as §1

Cell Line	relative viability (Wnt-C59 + Alpelisib; first compound 0.001 µM)	relative viability (Wnt-C59 + Alpelisib; first compound 0.01 µM)	relative viability (Wnt-C59 + Alpelisib; first compound 0.03162 µM)	relative viability (Wnt-C59 + Alpelisib; first compound 0.1 µM)	relative viability (Lapatinib + Luminespib; first compound 0.02 µM)	relative viability (Lapatinib + Luminespib; first compound 0.06325 µM)	relative viability (Lapatinib + Luminespib; first compound 0.2 µM)	relative viability (Lapatinib + Luminespib; first compound 0.6325 µM)	relative viability (Lapatinib + Luminespib; first compound 2 µM)	relative viability (Wnt-C59 + Tozasertib; first compound 0.001 µM)	relative viability (Wnt-C59 + Tozasertib; first compound 0.01 µM)	relative viability (Wnt-C59 + Tozasertib; first compound 0.03162 µM)	relative viability (Wnt-C59 + Tozasertib; first compound 0.1 µM)	relative viability (Lapatinib + Vorinostat; first compound 0.06325 µM)	relative viability (Lapatinib + Vorinostat; first compound 0.2 µM)	relative viability (Lapatinib + Vorinostat; first compound 0.6325 µM)	relative viability (Lapatinib + Vorinostat; first compound 2 µM)	relative viability (Lapatinib + Vorinostat; first compound 0.02 µM)
SW 1573	0.701	0.758	0.89	0.79	0.293	0.23	0.387	0.233	0.146	0.144	0.196	0.342	0.167	0.612	0.987	0.828	0.774	–
NCI-H23	0.68	0.663	0.822	0.584	–	–	0.197	0.215	0.196	0.377	0.33	0.446	0.333	–	0.624	0.746	0.555	–
HCC-15	0.962	0.952	0.904	0.868	–	0.425	0.303	0.293	0.235	0.407	0.389	0.322	0.44	0.779	0.813	0.858	0.693	–
LU99A	0.496	0.566	0.604	0.538	0.253	0.248	0.285	0.251	0.244	0.256	0.276	0.272	0.262	0.358	0.506	0.426	0.469	0.49
HOP-62	1.13	0.919	1.1	0.644	0.839	0.949	0.932	0.869	1.01	0.349	0.363	0.394	0.314	0.631	0.639	0.678	0.655	–
NCI-H1793	0.827	0.536	0.898	0.668	–	0.33	0.174	0.158	0.143	0.309	–	0.302	0.345	0.495	0.646	0.646	0.42	–
LXF-289	1.05	1.03	1.04	1.02	0.709	0.459	0.603	0.603	0.65	0.22	0.221	0.182	0.194	0.709	0.83	0.664	0.673	0.474
COR-L 105	1.19	1.03	0.93	0.78	0.592	0.698	0.857	0.716	0.6	0.297	0.332	0.371	0.437	0.825	0.779	0.42	0.589	0.773
HCC-827	0.993	0.979	0.971	0.966	0.74	0.8	0.629	0.624	0.253	0.45	0.427	0.374	0.443	0.868	0.706	0.802	0.869	0.76
PC-14	1.01	0.92	0.995	0.934	–	0.147	0.12	0.192	0.149	0.663	0.658	0.569	0.619	0.55	0.76	0.732	0.0919	0.652
NCI-H1915	1.07	1.01	1.07	1.03	–	0.847	0.832	0.707	0.848	0.471	0.404	0.508	0.457	0.494	0.554	0.489	0.473	–
LCLC-103H	0.951	0.969	1.04	1.16	0.954	0.82	0.877	0.891	0.852	0.516	0.487	0.475	0.474	0.65	0.768	0.779	0.692	0.582
NCI-H2228	0.816	0.74	0.929	0.751	0.137	0.128	0.145	0.143	0.123	0.31	0.322	0.264	0.23	0.7	0.907	0.517	0.48	0.774
EPLC-272H	0.96	0.861	0.976	0.921	–	–	0.44	0.205	0.359	0.297	0.25	0.362	0.276	0.328	0.457	0.583	0.391	0.636
NCI-H2126	0.742	0.703	0.788	0.723	–	0.729	0.833	0.859	0.775	0.882	0.876	0.874	0.82	0.405	0.717	0.801	0.614	0.251
ABC-1	1.26	1.01	0.718	0.876	–	–	0.509	–	0.64	0.15	0.166	0.164	0.19	1.02	–	1	1.18	0.929
NCI-H2170	0.813	0.675	0.987	0.841	0.664	0.385	0.433	0.462	0.223	0.721	0.641	0.852	0.602	0.747	0.578	0.582	0.372	0.726
NCI-H650	1.01	1.24	1.23	1.11	–	0.81	0.729	0.862	0.854	0.734	0.748	0.802	0.729	0.38	0.434	0.577	0.538	–
